According to patent US20040034036A1, “N-(3,5-dichloro-2-methoxyphenyl)-4-methoxy-3-piperazin-1-yl-benzenesulfonamide” (priority 2000, published 2004):

Tests used:
[1] = MEST (Maximal electroshock seizure threshold) test; format: in vivo; settings: procedures described by Upton et al.
[2] = CNS penetration; format: in vivo; settings: relative to N-(2,3,5-Trichlorophenyl)-4methoxy-3-piperazin-1-ylbenzenesulfonamide (Example 136 of WO 99/02502)
[3] = oral bioavailability; settings: in vivo

| Structure (SMILES) | effect in MEST test [1] | CNS penetration [2] | oral bioavailability [3] |
| --- | --- | --- | --- |
| COc1ccc(S(=O)(=O)Nc2cc(Br)cc(F)c2Br)cc1N1CCNCC1 [Example 140 of WO 99/02502, N-(2,5-Dibromo-3-fluorophenyl)-4-methoxy-3-piperazin-1-ylbenzenesulfonamide, reference compound] | pro-convulsant effect |  |  |
| COc1ccc(S(=O)(=O)Nc2cc(Cl)cc(Cl)c2OC)cc1N1CCNCC1 [compound of formula (I), N-(3,5-Dichloro-2-methoxy-phenyl)-4-methoxy-3-piperazin-1-yl-benzenesulfonamide] | strongly anti-convulsant effect | enhanced | high |
